How the values were obtained:
Assay type in all cases: cell-based
mutant CFTR = mutant CFTR (Homo sapiens, UniProt P13569); assay: Fluorescence assay for CFTR activity (halide-sensitive YFP, HS-YFP); conditions: CFBE41o- and FRT cells with stable expression of mutant CFTR
Procedure, shortened: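 CFBE41o- or FRT cells stably expressing mutant CFTR and HS-YFP; correctors given 24 h, then 30 min forskolin 20 μM plus genistein 50 μM. Potentiators given 30 min with forskolin 20 μM, after 24 h at 27° C. for F508del, directly for G551D or G1349D. Quenching rate after 100 mM final I^− gives EC50.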

F508del-CFTR [1] = molecular target: T1, F508del-CFTR (Homo sapiens, UniProt P13569, DEL508-508); assay: Transepithelial electrical conductance (TEEC) in FRT cells expressing F508del-CFTR; parameters: expressed in transfected cells; host or cells: FRT cells; conditions: tested at 5.0 μM, 24 hrs incubation
Experimental: FRT cells expressing F508del-CFTR were plated on HTS Transwell-24 well permeable supports (Code 3379, Corning Life Sciences) at a density of 200,000 cells/well. After six days, cells were incubated for 24 hrs with test correctors, vehicle, or VX-809. Compounds were dissolved in both basolateral (800 μL) and apical (300 μL) culture medium. After treatment, the culture medium was removed and replaced on both sides with a saline solution containing (in mM): 130 NaCl, 2.7 KCl, 1.5 KH2PO4, 1 CaCl2, 0.5 MgCl2, 10 glucose, 10 Na-Hepes (pH 7.4). The basolateral and apical side received 800 μL and 100 μL, respectively. The 24-well tray with cells was placed on a block heater (SBH 130D, Stuart) to keep the temperature at 37° C. during the entire experiment. After 10 min, the basal transepithelial electrical resistance (TEER) across each layer of FRT cells was measured with a STX100C electrode pair connected to an EVOM2 voltohmeter (World Precision Instruments). To stimulate F508del-CFTR, each well received (apical side) 50 μL of saline solution containing 60 μM forskolin and 150 μM genistein (final concentrations: 20 μM forskolin, 50 μM genistein). Forskolin was also pipetted in the basolateral medium to obtain the 20 μM concentration. After 10 min TEER was measured again in each well. To block F508del-CFTR function, the inhibitor PPQ-102 was used at the final concentration of 30 μM. To achieve the desired concentration, 75 μL of the apical solution in each well was replaced with an equal volume of saline solution containing 20 μM forskolin, 50 μM genistein, and 60 μM PPQ-102. After further 10 min, the transepithelial electrical resistance was measured. All values of TEER were converted to transepithelial electrical conductance (TEEC) using the formula TEEC=1/TEER. The parameter to indicate activity of F508del-CFTR in each well (ATEEC) was calculated from the difference in TEEC measured after maximal stimulation of F508del-CFTR with forskolin and genistein and after block with PPQ-102.
Corrector activities obtained on selected compounds tested at 5.0 μM (expressed as ΔTEEC values) are illustrated in Table 2, wherein+: ΔTEEC<2000 μS; ++: 2000 μS <ΔTEEC<3000ρS; +++: ΔTEEC>3000 μS.

F508del-CFTR [2] = molecular target: T1, F508del-CFTR; assay: Short-circuit current recordings on human bronchial epithelial cells from CF patients (F508del/F508del); parameters: Human bronchial epithelial (HBE) cells obtained from CF patients (F508del/F508del genotype); endogenous in cells; host or cells: primary human bronchial epithelial cells from CF patients, F508del/F508del; conditions: HBE cells F508del/F508del, 24 hrs treatment, CPT-cAMP plus VX-770 minus CFTRinh-172
Experimental: Human bronchial epithelial (HBE) cells obtained from CF patients (F508del/F508del genotype) were plated on Snapwell inserts (Code 3801, Corning Life Sciences) at a density of 500,000 cells per insert. Cells were cultured for two weeks in a differentiating medium whose compositions has been previously described (Scudieri et al., J Physiol 590:6141-6155, 2012). For the first week, the medium was kept on both apical and basolateral sides of inserts (submerged condition). For the second week, the apical medium was removed (air-liquid condition, ALC). To test the activity of correctors, cells were treated for 24 hrs with compounds dissolved in the basolateral medium. After treatment, Snapwell inserts carrying differentiated bronchial epithelia were mounted in a vertical chamber resembling an Ussing system with internal fluid circulation. Both apical and basolateral hemichambers were filled with 5 mL of a Krebs bicarbonate solution containing (in mM): 126 NaCl, 0.38 KH2PO4, 2.13 K2HPO4, 1 MgSO4, 1 CaCl2, 24 NaHCO3, and 10 glucose. Both sides were continuously bubbled with a gas mixture containing 5% CO2-95% air and the temperature of the solution was kept at 37° C. The transepithelial voltage was short-circuited with a voltage-clamp (DVC-1000, World Precision Instruments) connected to the apical and basolateral chambers via Ag/AgCl electrodes and agar bridges (1 M KCl in 1% agar). The offset between voltage electrodes and the fluid resistance were canceled before experiments. The short-circuit current was recorded with a PowerLab 4/25 (ADInstruments) analogical to digital converter connected to a Macintosh computer. […] The difference between the current measured with CPT-cAMP plus potentiator and the current remaining after CFTRinh-172 treatment (ΔICFTR) was taken as the parameter reflecting F508del-CFTR expression in the apical membrane.
Activities of selected compounds on HBE cells (expressed as ΔICFTR) are illustrated in Table 3 wherein+: ΔICFTR<2.0 μA; ++: 2.0 μA<ΔICFTR<3.0 μA; +++: ΔICFTR >3.0 μA.

Chain of mutant CFTR (P13569 with tags, fused parts or gaps DEL508-508): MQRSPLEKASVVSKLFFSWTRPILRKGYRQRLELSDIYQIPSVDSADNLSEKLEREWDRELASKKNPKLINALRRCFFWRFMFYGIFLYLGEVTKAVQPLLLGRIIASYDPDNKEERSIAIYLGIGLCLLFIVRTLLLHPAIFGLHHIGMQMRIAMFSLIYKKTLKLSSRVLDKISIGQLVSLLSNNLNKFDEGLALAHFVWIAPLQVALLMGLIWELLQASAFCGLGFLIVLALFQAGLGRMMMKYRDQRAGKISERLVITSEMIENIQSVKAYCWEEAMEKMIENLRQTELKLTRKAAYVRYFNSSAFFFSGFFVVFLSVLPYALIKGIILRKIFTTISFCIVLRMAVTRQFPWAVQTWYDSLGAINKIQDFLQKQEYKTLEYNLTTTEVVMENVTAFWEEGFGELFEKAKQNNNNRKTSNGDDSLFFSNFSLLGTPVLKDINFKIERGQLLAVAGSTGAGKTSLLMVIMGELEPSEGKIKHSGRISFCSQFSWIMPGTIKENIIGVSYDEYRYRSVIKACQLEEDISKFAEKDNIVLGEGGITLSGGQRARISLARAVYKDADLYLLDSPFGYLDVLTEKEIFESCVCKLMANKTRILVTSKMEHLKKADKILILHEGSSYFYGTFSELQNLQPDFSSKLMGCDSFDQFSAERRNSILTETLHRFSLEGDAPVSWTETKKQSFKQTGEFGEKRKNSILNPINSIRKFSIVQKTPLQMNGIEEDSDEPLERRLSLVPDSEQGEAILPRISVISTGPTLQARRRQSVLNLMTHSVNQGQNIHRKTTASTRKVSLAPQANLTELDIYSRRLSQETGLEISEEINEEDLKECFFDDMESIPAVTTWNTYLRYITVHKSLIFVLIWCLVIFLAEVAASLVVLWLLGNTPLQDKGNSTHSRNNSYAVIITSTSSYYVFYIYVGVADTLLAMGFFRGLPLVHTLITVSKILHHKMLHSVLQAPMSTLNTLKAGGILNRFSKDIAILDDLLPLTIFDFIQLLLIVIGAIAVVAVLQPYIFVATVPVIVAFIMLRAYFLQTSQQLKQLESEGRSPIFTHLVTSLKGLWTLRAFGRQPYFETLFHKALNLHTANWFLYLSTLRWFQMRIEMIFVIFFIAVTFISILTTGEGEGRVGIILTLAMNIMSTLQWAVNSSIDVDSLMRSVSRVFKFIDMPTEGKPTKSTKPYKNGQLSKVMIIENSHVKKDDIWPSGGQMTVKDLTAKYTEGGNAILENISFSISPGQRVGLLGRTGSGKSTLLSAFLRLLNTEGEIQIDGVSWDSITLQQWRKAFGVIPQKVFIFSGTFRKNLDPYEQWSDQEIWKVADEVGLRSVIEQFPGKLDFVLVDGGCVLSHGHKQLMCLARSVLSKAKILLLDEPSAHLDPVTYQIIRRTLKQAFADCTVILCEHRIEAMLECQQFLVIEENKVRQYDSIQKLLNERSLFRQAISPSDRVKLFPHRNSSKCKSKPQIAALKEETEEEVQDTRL
T1 sequence (P13569 with tags, fused parts or gaps DEL508-508): as above

EC50 (mutant CFTR) [nM]	activity (corrector activity expressed as ΔTEEC) (F508del-CFTR [1])	activity (ΔICFTR) (F508del-CFTR [2])	SMILES
< 1000	+++ (ΔTEEC>3000 μS)	++ (2.0 μA<ΔICFTR<3.0 μA)	NC(=O)c1sc2ccccc2c1C1CN(S(=O)(=O)c2ccc(C(F)(F)F)c(F)c2)CCO1 (racemic) [compound 041, rac-3-[4-[3-fluoro-4-(trifluoromethyl)phenyl]sulfonylmorpholin-2-yl]benzothiophene-2-carboxamide]
1000 to 2000	++ (2000 μS <ΔTEEC<3000ρS)	+++ (ΔICFTR >3.0 μA)	NC(=O)c1sc2ccccc2c1C1CN(S(=O)(=O)c2ccc(C(F)(F)F)cc2)CCO1 (racemic) [compound 011, rac-3-[4-[4-(trifluoromethyl)phenyl]sulfonylmorpholin-2-yl]benzothiophene-2-carboxamide]
< 1000	++ (2000 μS <ΔTEEC<3000ρS)	+++ (ΔICFTR >3.0 μA)	Cc1nc2ccc(S(=O)(=O)N3CCOC(c4c(C(N)=O)sc5ccccc45)C3)cc2o1 (racemic) [compound 034, rac-3-[4-[(2-methyl-1,3-benzoxazol-6-yl)sulfonyl]morpholin-2-yl]benzothiophene-2-carboxamide]
> 2000	++ (2000 μS <ΔTEEC<3000ρS)	+ (ΔICFTR<2.0 μA)	Cc1cc(S(=O)(=O)N2CCOC(c3c(C(N)=O)sc4ccccc34)C2)ccc1F (racemic) [compound 001, rac-3-[4-(4-fluoro-3-methyl-benzenesulfonyl)-morpholin-2-yl]-benzo[b]thiophene-2-carboxylic acid amide]

Source: US12391680B2, “Compounds and compositions for the treatment of cystic fibrosis” (FONDAZIONE ISTITUTO ITALIANO DI TECNOLOGIA, priority 2019, dated 2025)
